Converted amounts (≈) assume the structure as drawn.

For data set [1], the system named is Escherichia coli. Description: Antibacterial activity against Escherichia coli ATCC 25922 after 24 hr by two-fold serial dilution method. It is filed as functional. The following applies: ATCC 25922, 24 h.
For data set [2], the system named is Pseudomonas aeruginosa. Description: Antibacterial activity against Pseudomonas aeruginosa ATCC 27853 after 24 hr by two-fold serial dilution method. It is filed as functional. The following applies: ATCC 27853, 24 h.
In data set [3] the test system is Mus musculus. Description: Anti-inflammatory activity in Swiss albino Mus musculus (mouse) assessed as inhibition of carrageenan-induced paw edema at 100 mg/kg, po administered 60 min prior to crrageenan-challenge measured at 180 min relative to control. It is filed as functional. (The carrageenan paw model is a standard test of acute inflammation.)
In data set [4] the test system is Mus musculus. Description: Anti-inflammatory activity in Swiss albino Mus musculus (mouse) assessed as inhibition of carrageenan-induced paw edema at 100 mg/kg, po administered 60 min prior to crrageenan-challenge measured at 90 min relative to control. It is filed as functional.
Data set [5] has as its system Escherichia coli. Nature of the data set: Antibacterial activity against Escherichia coli clinical isolate expressing extended spectrum beta-lactamase after 24 hr by two-fold serial dilution method. The format is functional.
The subject of data set [6] is Mus musculus. Nature of the data set: Anti-inflammatory activity in Swiss albino Mus musculus (mouse) assessed as inhibition of carrageenan-induced paw edema at 100 mg/kg, po administered 60 min prior to crrageenan-challenge measured at 360 min relative to control. It is filed as functional.
The test system of data set [7] is Enterococcus faecalis. Nature of the data set: Antibacterial activity against Enterococcus faecalis ATCC 29212 after 24 hr by two-fold serial dilution method. It is filed as functional. As to conditions: ATCC 29212, 24 h.
The subject of data set [8] is Enterococcus faecalis. Nature of the data set: Antibacterial activity against Enterococcus faecalis clinical isolate after 24 hr by two-fold serial dilution method. It is filed as functional.
For data set [9], the system named is Pseudomonas aeruginosa. Nature of the data set: Antibacterial activity against Pseudomonas aeruginosa cloinical isolate after 24 hr by two-fold serial dilution method. The format is functional.
Data set [10] concerns Mus musculus. Description: Analgesic activity in Swiss albino Mus musculus (mouse) assessed as inhibition of p-benzoquinone-induced writhing at 100 mg/kg, po administered 60 min prior to p-benzoquinone-challenge measured up to 15 min relative to control. It is filed as functional.
Data set [11] has as its system Staphylococcus aureus. Description: Antibacterial activity against Staphylococcus aureus ATCC 29213 after 24 hr by two-fold serial dilution method. It is filed as functional. The following applies: ATCC 29213, 24 h.
The test system of data set [12] is Mus musculus. Nature of the data set: Ulcerogenic activity in p-benzoquinone-challenged Swiss albino Mus musculus (mouse) at 100 mg/kg, po administered 60 min prior to p-benzoquinone-challenge by microscopic analysis. It is filed as toxicity, organism-based. Further details: dose 100 mg/kg, route oral. As to conditions: in vivo, 1 h.
Data set [13] concerns Candida albicans. Nature of the data set: Antifungal activity against Candida albicans ATCC 10231 after 48 hr by two-fold serial dilution method. It is filed as functional. As to conditions: ATCC 10231, 48 h.
Data set [14] relates to Mus musculus. Nature of the data set: Anti-inflammatory activity in Swiss albino Mus musculus (mouse) assessed as inhibition of carrageenan-induced paw edema at 100 mg/kg, po administered 60 min prior to crrageenan-challenge measured at 270 min relative to control. The format is functional.
Data set [15] has as its system Pichia kudriavzevii. Nature of the data set: Antifungal activity against Pichia kudriavzevii ATCC 6258 after 48 hr by two-fold serial dilution method. It is filed as functional. As to conditions: ATCC 6258, 48 h.
The subject of data set [16] is Staphylococcus aureus. Description: Antibacterial activity against methicillin-resistant Staphylococcus aureus clinical isolate after 24 hr by two-fold serial dilution method. The format is functional.
Data set [17] relates to Mus musculus. Description: Anti-inflammatory activity in Swiss albino Mus musculus (mouse) assessed as inhibition of carrageenan-induced paw edema at 10 mg/kg, po administered 60 min prior to crrageenan-challenge measured at 360 min relative to control. The format is functional.
Data set [18] deals with Mus musculus. Description: Anti-inflammatory activity in Swiss albino Mus musculus (mouse) assessed as inhibition of carrageenan-induced paw edema at 10 mg/kg, po administered 60 min prior to crrageenan-challenge measured at 270 min relative to control. It is filed as functional.
Data set [19] relates to Mus musculus. Description: Anti-inflammatory activity in Swiss albino Mus musculus (mouse) assessed as inhibition of carrageenan-induced paw edema at 10 mg/kg, po administered 60 min prior to crrageenan-challenge measured at 180 min relative to control. It is filed as functional.
The test system of data set [20] is Mus musculus. Nature of the data set: Anti-inflammatory activity in Swiss albino Mus musculus (mouse) assessed as inhibition of carrageenan-induced paw edema at 10 mg/kg, po administered 60 min prior to crrageenan-challenge measured at 90 min relative to control. It is filed as functional.

One may read the MIC as the lowest concentration that inhibits growth of the organism. The low end stands for inhibition by little substance, the high end for a need for much substance. One may read the inhibition in vivo as the relative decrease from the control value, in per cent. Consider `O=c1ccc(-c2ccccc2)nn1CCN1CCN(c2ccc(Cl)cc2)CC1`, for which the minimal inhibitory concentration (MIC) in data set [1], in [2], in [5], in data set [7], in data set [8] and in data set [9] was 64 µg/mL (≈ 162 µM) throughout. Moreover, the minimum inhibitory concentration (MIC) came out at 64 µg/mL (≈ 162 µM) in data set [11], 32 µg/mL (≈ 81 µM) in data set [13], 32 µg/mL (≈ 81 µM) in data set [15] and 128 µg/mL (≈ 324 µM) in data set [16]. Also, the inhibition in vivo at 100 mg/kg in data set [3] came to 14.9%; in data set [4], 16.2%; in data set [6], 12.1%; in data set [10], 23.3%; in [14] it was 14.8%. Moreover, in data set [12], the Activity entry was “Non-toxic”.

Take `O=c1ccc(-c2ccccc2)nn1CCN1CCN(c2ccc(F)cc2)CC1`: the MIC in [1], in [2], in data set [5], in data set [7], in data set [8] and in data set [9] was 64 µg/mL (≈ 169 µM) in each case. For the same molecule, the MIC in [11] amounted to 64 µg/mL (≈ 169 µM); in data set [13] it was 32 µg/mL (≈ 84.6 µM); in [15], 32 µg/mL (≈ 84.6 µM); in data set [16] it was 128 µg/mL (≈ 338 µM). For the same molecule, the inhibition in vivo at 100 mg/kg came out at 26.3% in [3]; 10.6% in data set [4]; 19.5% in [6]; 16.8% in data set [10]; 29.9% in data set [14]. Moreover, the Activity result in data set [12] is recorded as “Non-toxic”.

On to `COc1ccc2c(c1)c(CC(=O)O)c(C)n2C(=O)c1ccc(Cl)cc1` [INDOMETHACIN], for which the inhibition in vivo at 10 mg/kg in data set [17] was 39.4%; in [18], 37.6%; in data set [19], 36.9%; in data set [20], 25.3%.
